Experimental data published in the NIST ThermoML archive (doi:10.1021/je9008574).
Values joined by “and” are separate entries in the source; they are usually repeats but may differ in a detail not shown here. Equal entries are not always repeated.

Conditions: Crystal

[Cl-].[Cl-].[Ga+2] [gallium(II) chloride]
Conditions	vapor or sublimation pressure
372 K	4.571e-05 kPa
374 K	3.09e-05 kPa
375 K	6.166e-05 kPa and 4.571e-05 kPa and 3.388e-05 kPa
378 K	4.571e-05 kPa
378.5 K	6.166e-05 kPa
379 K	9.12e-05 kPa
381 K	7.762e-05 kPa
381.5 K	6.761e-05 kPa
382.5 K	9.12e-05 kPa
383.5 K	0.0001202 kPa
384 K	0.0001202 kPa and 0.000123 kPa
385 K	0.0001072 kPa
386 K	0.0001514 kPa and 0.0001778 kPa
386.5 K	0.000123 kPa and 0.0001023 kPa
387 K	0.0001862 kPa
387.5 K	0.000123 kPa
388.5 K	0.0001778 kPa
389 K	0.0002089 kPa
390 K	0.0002399 kPa
390.5 K	0.0001549 kPa
391 K	0.0001698 kPa and 0.0001862 kPa
391.5 K	0.0002399 kPa and 0.0002754 kPa
392 K	0.000302 kPa
393 K	0.0001862 kPa
393.5 K	0.000302 kPa
394 K	0.0002455 kPa and 0.0003311 kPa and 0.0002138 kPa
395 K	0.0002754 kPa
396 K	0.0002951 kPa
396.5 K	0.000309 kPa
397.5 K	0.000389 kPa and 0.0005248 kPa
398 K	0.0002951 kPa and 0.0004169 kPa and 0.0004467 kPa
398.5 K	0.0004786 kPa
399 K	0.0003388 kPa and 0.0004786 kPa
399.5 K	0.0003802 kPa and 0.0003981 kPa and 0.000302 kPa
401 K	0.0005129 kPa
402 K	0.0007244 kPa and 0.0007413 kPa
402.5 K	0.0006607 kPa and 0.000389 kPa
403 K	0.0006607 kPa and 0.0004786 kPa
403.5 K	0.0005495 kPa
404 K	0.0007762 kPa
405 K	0.0006761 kPa and 0.0005888 kPa
405.5 K	0.0007762 kPa
406 K	0.000955 kPa and 0.0006761 kPa
406.5 K	0.0008913 kPa
407.5 K	0.000955 kPa and 0.0007762 kPa
408 K	0.0007079 kPa
409 K	0.0007762 kPa and 0.001023 kPa and 0.0007079 kPa
410 K	0.001202 kPa
410.5 K	0.000871 kPa and 0.001259 kPa and 0.001072 kPa
411 K	0.001023 kPa
411.5 K	0.001318 kPa and 0.001549 kPa
413 K	0.0009772 kPa and 0.001445 kPa
413.5 K	0.001514 kPa and 0.001445 kPa
414 K	0.001202 kPa and 0.001259 kPa and 0.001072 kPa
414.5 K	0.001288 kPa
415 K	0.002138 kPa
415.5 K	0.001259 kPa and 0.001905 kPa and 0.001862 kPa
416 K	0.001413 kPa and 0.001778 kPa
416.5 K	0.001905 kPa and 0.001549 kPa and 0.001288 kPa
417 K	0.001585 kPa and 0.001549 kPa
417.5 K	0.002089 kPa and 0.001698 kPa
418 K	0.002138 kPa
418.5 K	0.002399 kPa
419 K	0.002399 kPa and 0.002138 kPa
420 K	0.00195 kPa and 0.00263 kPa
421 K	0.003388 kPa and 0.002138 kPa
421.5 K	0.002138 kPa and 0.00302 kPa and 0.002951 kPa
422 K	0.002138 kPa and 0.002344 kPa
422.5 K	0.003236 kPa and 0.00302 kPa
423.5 K	0.002291 kPa
424 K	0.003802 kPa
424.5 K	0.002512 kPa and 0.002818 kPa
425.5 K	0.004266 kPa
426 K	0.003981 kPa [middle of 5 runs]
427 K	0.002754 kPa
427.5 K	0.004571 kPa and 0.003467 kPa
428 K	0.003236 kPa
428.5 K	0.003388 kPa and 0.004677 kPa
429 K	0.005248 kPa and 0.005129 kPa
430 K	0.004365 kPa and 0.005248 kPa and 0.003311 kPa
430.5 K	0.006026 kPa
431 K	0.003715 kPa
432 K	0.006457 kPa and 0.006761 kPa
432.5 K	0.004365 kPa
433 K	0.007079 kPa
434 K	0.006026 kPa and 0.005495 kPa
435.5 K	0.007943 kPa
436 K	0.005623 kPa and 0.008318 kPa and 0.005495 kPa
437 K	0.008913 kPa
438 K	0.007586 kPa
439 K	0.01 kPa
440 K	0.01096 kPa and 0.01072 kPa
441 K	0.00871 kPa and 0.007762 kPa
